Assays:
physchem = details: pH 7, aqueous buffer, thermodynamic from solid
Method: Then 0.2 g of each active ingredient was weighed into the batch to give a supersaturated solution. […] The mixture was then stirred at room temperature for 72 hours, using a magnetic stirrer. After a rest time of one hour, unsolubilized active ingredient was removed by filtration. The resulting clear or opaque solution was then analyzed for its active ingredient content by means of UV spectroscopy or HPLC.

[1] = Method: Then 100 mg of each active ingredient was weighed into the batch to give a supersaturated solution. The mixture was then stirred at room temperature for 24 hours, using a magnetic stirrer. After a rest time of one hour, unsolubilized active ingredient was removed by centrifuging. The resulting clear or opaque solution was then analyzed for its active ingredient content by means of UV spectroscopy.
The solubility was determined as described in procedure 2.

solubility at 72 h (physchem) [µg/mL]	Solubility of Fipronil in the presence of polymer [1] [µg/mL]	Molecule
< 100	–	Clc1ccccc1C(c1ccccc1)(c1ccccc1)n1ccnc1 [Clotrimazole]
–	6	polyethylene glycol monomethyl ether [PEG monomethyl ether]
